Earlier results as cited in patent publication US10285597B2 (dated 2019).

Details: TOL relative to TOSS (Ain=1 by definition); according to Bouillon et al., Anesthesiology 2004; 101: A503

CC(C)c1cccc(C(C)C)c1O [propofol]
C50 ratio of propofol for the tolerance of laryngoscopy as well as tolerance of shaking and loud shouting (stimulus intensity Ain for TOL): 2.83
